# Patent publication US10918645B2 (LIFEARC, priority 2016, dated 2021)
# Assays:
# JAK2 = JAK2 (Homo sapiens (Human), UniProt O60674); experiment: JAK2 kinase selectivity assay (33P panel); type: biochemical; settings: 1 μM inhibitor concentration
# Description: JAK2 (5-20 mU diluted in 50 mM Tris pH 7.5, 0.1 mM EGTA, 0.05% 0-mercaptoethanol, 1 mg/ml BSA) is assayed against PDKtide ([…]-[…]) in a final volume of 25.5 μl containing 50 mM Tris pH 7.5, 0.1 mM EGTA, 0.05% 0-mercaptoethanol, 100 μM substrate peptide, 10 mM magnesium acetate and 0.005 mM [33P-γ-ATP] (50-1000 cpm/pmole) and incubated for 30 min at room temperature Assays are stopped by addition of 5 μl of 0.5 M (3%) orthophosphoric acid and then harvested onto P81 Unifilter plates with a wash buffer of 50 mM orthophosphoric acid.
# [1] = target: LRRK2 (phospho S935) in Drosophila brain lysates (Homo sapiens (Human), UniProt Q5S007, G2019S); experiment: Drosophila model kinase assays at week 6; type: in vivo; settings: ratio of phosphate LRRK2 protein to Flag protein, significance compared to DMSO negative control
# Description: The 10 μM GW5074 was used for the positive control. The negative control group was DMSO control (all compounds were dissolved in DMSO with 1:1000 dillution). The Drosophila were maintained at 25° C. on a 12 hour light-12 hour dark cycle. GW5074 was used as positive control [47].
# The adult Drosophila heads were homogenized on ice, and the brain lysates were performed kinase reaction in kinase reaction buffer with ATP and DTT.
# Then the lysates were electrophoresed through 12% SDS-PAGE gels and transferred to PVDF membranes (Millipore). The membranes were blocked in TBST with 5% skimmed milk for 1 hour at room temperature and then incubated in anti-LRRK2 pSer935 antibody (Abcam, ab133450) and anti-Flag antibody overnight at 4° C.
# The proteins were detected with HRP-conjugated secondary antibodies and ECL detection reagents. The optical density of immunoblotting was analysed by Image J software and the ratio of phosphate LRRK2 protein compare to Flag protein were calculated and the data were analysed by GraphPad PRISM® 6.0 software.
# [2] = tested on: transgenic Drosophila expressing LRRK2-G2019S in dopamine (DA) neurons; experiment: Drosophila model survival rate; type: in vivo; settings: significance compared to DMSO negative control
# Source text: (§1) Drosophila model was used to evaluate Examples in vivo. The GAL4/UAS system developed by Andrea Brand and Norbert Perrimon in 1993 [45] was used to generate transgenic Drosophila expressing LRRK2-G2019S in dopamine (DA) neurons. The system has two parts: the GAL4 gene, encoding the yeast transcription activator protein GAL4, and the UAS (Upstream Activation Sequence), an enhancer to which GAL4 specifically binds to activate gene transcription. This system takes advantage of the yeast GAL4 transcription factor, which binds specifically to the UAS.
# To express LRRK2-G2019S in DA neurons, the UAS-Wild Type-LRRK2 and UAS-G2019S-LRRK2 transgenes were combined with the dopa decarboxylase (ddc)-GAL4 driver. The 10 μM GW5074 was used for the positive control. […]
# Twenty newly enclosed female Drosophila were collected and placed in a food vial. The Drosophila were moved to fresh food vials every other day at which time deaths were scored.
# Based on Drosophila′ survival curve, the 50% survival time parameter indicates the time at which half of the Drosophila remained alive and was used to compare the survival ratio between the different groups. The mean 50% survival times and the standard errors were calculated based on 4 separate experiments for each group. The data were analysed by GraphPad PRISM® 6.0 software.
# [3] = tested on: transgenic Drosophila expressing LRRK2-G2019S in dopamine (DA) neurons; experiment: Drosophila model climbing assay (negative geotaxis); type: in vivo; settings: significance compared to DMSO negative control
# Source text: as §1
# To express LRRK2-G2019S in DA neurons, the UAS-Wild Type-LRRK2 and UAS-G2019S-LRRK2 transgenes were combined with the dopa decarboxylase (ddc)-GAL4 driver. The 10 μM GW5074 was used for the positive control. The negative control group was DMSO control (all compounds were dissolved in DMSO with 1:1000 dillution). The Drosophila were maintained at 25° C. on a 12 hour light-12 hour dark cycle. GW5074 was used as positive control.
# The negative geotaxis assay was used to analyse the locomotors ability of the Drosophila. Twenty Drosophila from each vial and 4 vials for each group were performed the climbing assay weekly.
# The tested Drosophila were transferred into a vertical plastic tube (15 cm tall, 1.5 cm in diameter). After 30 min of rest at room temperature, the Drosophila were gently tapped to the bottom of the tube, the numbers of Drosophila that could climb to or above the test line within 10 seconds were counted and the percent were calculated.
# The climbing abilities were analysed based on three separate experiments for each vial and the data were analysed by GraphPad PRISM® 6.0 software.
# LRRK2 G2019S = LRRK2 G2019S (Homo sapiens (Human), UniProt Q5S007, G2019S); experiment: Adapta Kinase Assay (LRRK2_IC50 assay); type: biochemical; settings: inhibition of LRRK2 G2019S
# Sequence of LRRK2 G2019S (Q5S007 970-2527 G2019S): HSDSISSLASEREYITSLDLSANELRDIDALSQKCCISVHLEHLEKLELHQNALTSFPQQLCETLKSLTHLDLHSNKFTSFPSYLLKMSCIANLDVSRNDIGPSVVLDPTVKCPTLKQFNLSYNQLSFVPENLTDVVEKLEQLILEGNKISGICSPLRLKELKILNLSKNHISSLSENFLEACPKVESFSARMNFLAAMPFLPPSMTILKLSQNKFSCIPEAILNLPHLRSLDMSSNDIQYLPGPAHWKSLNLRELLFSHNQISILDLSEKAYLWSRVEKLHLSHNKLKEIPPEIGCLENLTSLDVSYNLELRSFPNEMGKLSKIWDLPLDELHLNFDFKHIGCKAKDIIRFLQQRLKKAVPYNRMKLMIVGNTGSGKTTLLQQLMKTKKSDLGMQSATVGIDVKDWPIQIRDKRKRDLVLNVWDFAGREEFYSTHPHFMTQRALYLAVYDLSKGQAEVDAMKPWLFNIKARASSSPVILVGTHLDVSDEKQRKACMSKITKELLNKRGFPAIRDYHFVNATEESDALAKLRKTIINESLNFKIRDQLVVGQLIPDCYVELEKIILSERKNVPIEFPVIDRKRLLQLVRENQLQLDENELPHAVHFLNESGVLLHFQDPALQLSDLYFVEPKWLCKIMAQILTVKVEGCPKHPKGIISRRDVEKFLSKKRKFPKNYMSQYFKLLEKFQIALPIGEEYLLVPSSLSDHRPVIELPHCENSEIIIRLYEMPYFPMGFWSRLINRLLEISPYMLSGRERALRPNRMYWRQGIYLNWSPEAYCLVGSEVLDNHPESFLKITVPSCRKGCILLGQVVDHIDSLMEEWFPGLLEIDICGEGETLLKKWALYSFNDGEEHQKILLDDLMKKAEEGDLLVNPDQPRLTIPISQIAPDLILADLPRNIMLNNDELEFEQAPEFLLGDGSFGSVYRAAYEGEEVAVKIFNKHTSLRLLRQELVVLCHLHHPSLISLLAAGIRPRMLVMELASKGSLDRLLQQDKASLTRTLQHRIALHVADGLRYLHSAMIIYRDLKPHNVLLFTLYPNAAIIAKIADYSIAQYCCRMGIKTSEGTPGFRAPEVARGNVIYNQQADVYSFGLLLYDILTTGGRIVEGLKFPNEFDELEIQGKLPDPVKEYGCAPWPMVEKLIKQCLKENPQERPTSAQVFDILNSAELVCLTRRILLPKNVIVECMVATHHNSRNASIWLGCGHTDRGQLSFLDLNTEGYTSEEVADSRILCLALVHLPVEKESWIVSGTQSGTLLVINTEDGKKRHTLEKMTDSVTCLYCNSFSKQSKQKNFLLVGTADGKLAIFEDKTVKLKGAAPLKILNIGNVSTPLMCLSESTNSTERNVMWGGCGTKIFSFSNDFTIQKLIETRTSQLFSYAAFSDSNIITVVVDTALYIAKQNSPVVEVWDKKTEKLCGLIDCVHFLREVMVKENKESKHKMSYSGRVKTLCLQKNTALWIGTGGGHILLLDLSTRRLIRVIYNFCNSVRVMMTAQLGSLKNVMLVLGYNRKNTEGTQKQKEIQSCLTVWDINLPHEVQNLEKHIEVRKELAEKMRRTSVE
# Description: In Adapta™ Kinase Assay (LRRK2_IC50 assay): the Kinase Reaction Buffer contained 5× Kinase Buffer S (Life Technologies, PV5213) and 2 mM DTT (Life Technologies, P2325).
# The Adapta® universal kinase assay is a homogenous, fluorescent based immunoassay for the detection of ADP. In contrast to ATP depletion assays, the Adapta® assay is extremely sensitive to ADP formation such that a majority of the signal change occurs in the first 10-20% conversion of ATP to ADP. This makes the Adapta® universal kinase assay ideally suited for use with low activity kinases.
# Prepare a 1× solution of kinase reaction buffer from the 5× Kinase Buffer S stock (listed above) by adding 2 ml of 5× stock to 8 ml of H2O to make 10 ml of 1× kinase reaction buffer. To this, add 20 μl of 1 M DTT.
# Kinase reactions are performed in a 10 μl volume in low-volume 384-well plates. […] Other non—treated assay plates, while not tested, may also be suitable. The concentration of substrate in the assay is 100 μM, and the 1× kinase reaction buffer consists of 50 mM Tris-HCl pH8.5, 10 mM MgCl2, 1 mM EGTA, 0.01% Brij-35, and 2 mM DTT, plus any additional additives that may be required for a specific kinase. […] The plate is allowed to equilibrate at room temperature for at least 30 minutes before being read on a plate reader configured for Adapta™ TR-FRET.
# The data presented in this document were generated using a BMG LABTECH PHERAstar plate reader using the appropriate filters and instrument settings for Adapta™. The Test Compounds are screened in 1% DMSO (final) in the well. For 8 point titrations, 5-fold serial dilutions are conducted from the starting concentration.
# IC50 estimates were obtained using the software XLfit (IDBS Inc.).
# Sequence of JAK2 (O60674 whole entry, species assumed): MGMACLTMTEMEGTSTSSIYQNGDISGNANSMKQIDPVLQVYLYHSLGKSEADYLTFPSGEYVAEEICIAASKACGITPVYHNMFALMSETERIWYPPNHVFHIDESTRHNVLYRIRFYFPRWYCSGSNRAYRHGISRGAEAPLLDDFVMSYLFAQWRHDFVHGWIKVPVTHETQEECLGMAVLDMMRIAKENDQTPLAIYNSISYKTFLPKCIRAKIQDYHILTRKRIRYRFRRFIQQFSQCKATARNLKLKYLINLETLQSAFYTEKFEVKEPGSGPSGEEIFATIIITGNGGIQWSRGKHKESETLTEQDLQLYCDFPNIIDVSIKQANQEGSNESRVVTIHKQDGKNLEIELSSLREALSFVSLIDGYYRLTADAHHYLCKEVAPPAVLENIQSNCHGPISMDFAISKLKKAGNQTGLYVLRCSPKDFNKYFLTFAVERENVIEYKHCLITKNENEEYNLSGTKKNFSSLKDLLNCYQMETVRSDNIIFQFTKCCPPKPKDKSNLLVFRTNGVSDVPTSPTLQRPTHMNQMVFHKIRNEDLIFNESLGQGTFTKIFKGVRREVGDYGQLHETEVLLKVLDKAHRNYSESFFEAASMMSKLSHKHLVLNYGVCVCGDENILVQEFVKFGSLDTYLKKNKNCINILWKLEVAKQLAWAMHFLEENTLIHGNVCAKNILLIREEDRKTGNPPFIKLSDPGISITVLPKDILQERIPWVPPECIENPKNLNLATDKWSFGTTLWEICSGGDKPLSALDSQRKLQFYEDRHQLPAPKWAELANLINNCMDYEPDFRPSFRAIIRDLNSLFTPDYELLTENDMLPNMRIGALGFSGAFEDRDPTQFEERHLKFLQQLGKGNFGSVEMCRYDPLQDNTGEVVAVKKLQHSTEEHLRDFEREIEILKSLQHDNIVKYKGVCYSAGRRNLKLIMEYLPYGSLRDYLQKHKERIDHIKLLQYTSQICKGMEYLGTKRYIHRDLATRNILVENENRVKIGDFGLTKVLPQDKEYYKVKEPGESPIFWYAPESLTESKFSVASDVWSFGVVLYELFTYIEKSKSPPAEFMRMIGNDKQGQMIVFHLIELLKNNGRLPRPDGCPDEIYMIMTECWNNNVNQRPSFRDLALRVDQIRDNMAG
smiles,measurement,setting,value
"c1cc2[nH]nc3c2c(n1)N(C1CCC1)CCC3 [Example 22, 6-cyclobutyl-6,7,8,9-tetrahydro-2H-1,2,5,6-tetraazabenzo[cd]azulene]",percentage inhibition of JAK2,JAK2,5 percentage
"c1cc2[nH]nc3c2c(n1)N(C1CCCC1)CCC3 [Example 23, 6-cyclopentyl-6,7,8,9-tetrahydro-2H-1,2,5,6-tetraazabenzo[cd]azulene]",percentage inhibition of JAK2,JAK2,12 percentage
"c1cc2[nH]nc3c2c(n1)N(C1CCOCC1)CCC3 [Example 29, 6-(tetrahydro-2H-pyran-4-yl)-6,7,8,9-tetrahydro-2H-1,2,5,6-tetraazabenzo[cd]azulene]",Kinase Assays,[1],"* (P < 0.05, compared to DMSO negative control)"
same,Survival Rate,[2],"* (P < 0.05, compared to DMSO negative control)"
same,Climbing Assay 3 weeks,[3]; 3 weeks,"* (P < 0.05, compared to DMSO negative control)"
same,Climbing Assay 4 weeks,[3]; 4 weeks,"** (P < 0.01, compared to DMSO negative control)"
same,Climbing Assay 5 weeks,[3]; 5 weeks,"* (P < 0.05, compared to DMSO negative control)"
same,Climbing Assay 6 weeks,[3]; 6 weeks,"* (P < 0.05, compared to DMSO negative control)"
same,IC50,LRRK2 G2019S,150 nM
CN1CCC(N2Cc3ccccc3-c3n[nH]c4ccnc2c34)CC1 [Example 55],IC50,LRRK2 G2019S,50 nM
